# In ChEMBL document CHEMBL1157539, “Thousands of chemical starting points for antimalarial lead identification” (Nature, 2010):
# Tested on: Plasmodium falciparum
# Assay: GSK_TCMDC: Inhibition of Plasmodium falciparum 3D7 in whole erythrocytes, using parasite LDH activity as an index of growth.
# Format: functional, organism-based
# Settings: Plasmodium falciparum, 3D7
row,SMILES,XC50 [nM]
1,COc1ccc(Nc2nc(N/N=C/c3cc(Br)ccc3O)nc(Nc3ccc([N+](=O)[O-])cc3)n2)cc1,222
2,CCNc1cc(C(=O)N[C@@H](Cc2ccccc2)[C@H](O)CN[C@H]2CCc3ccccc32)cc(N2CCCC2=O)c1,295
3,Cc1[nH]c(C)c(-c2ccc(Oc3ccc(F)cc3)cc2)c(=O)c1Br,54.9
4,COc1nc2c(CCN3CC[C@H](NCc4cc(C#N)c5c(c4)CCO5)[C@H](O)C3)ccnc2cc1F,350
5,COc1ccc(CN2CCC2=O)c(OC)c1,122
6,COc1cc(Cc2cnc(N)nc2N)cc(OC)c1OCCCCC(=O)O,1140
7,Cc1cccc2nc(-c3ccc(-c4cccc(CN5CCC(N)C5)c4)s3)[nH]c12 (stereo not drawn),773
8,CC(C)(C)OC(=O)n1cc(C2CCN(CCCC34CCCc5cccc(c53)NC4=O)CC2)c2ccncc21 (stereo not drawn),876
9,O=C(NC1CCCCCC1)[C@@H]1CCCN1C(=O)c1ccc(O)c(-c2ccc(Cl)c(Cl)c2)c1,345
10,CCOC(=O)c1ccc(NC(=O)Nc2cccc(-c3ccc(-c4nc5ccccc5[nH]4)cc3)c2)cc1,212
11,COc1ccc2nccc([C@@H](O)CN3CCC(NC(=O)c4cc5c(F)cc(F)cc5[nH]4)CC3)c2n1,1390
12,COc1cc(OC)c(NC(=O)Nc2ccnc3ccccc23)cc1Cl,751
13,N=c1ccn(CC(=NO)c2ccc(Cl)c(Cl)c2)cc1,943
14,N#Cc1cccc(COC(=O)C2=C(COc3ccccc3Cl)NC(=O)NC2c2c[nH]c3cnccc23)c1 (stereo not drawn),792
15,COc1ccc(CNCc2ccc(F)cc2)cc1-c1ccc(S(=O)(=O)NCCN2CCCC2)c(C)c1,734
16,N=C(N)NN=Cc1ccccc1OCc1ccccc1Cl,718
17,CCOC(=O)c1ccc(NCc2ccccn2)cc1,626
18,COc1c(OC)c(OC)c2ccccc2c1CNCCCCCCNCc1c(OC)c(OC)c(OC)c2ccccc12,759
19,Nc1cccc(CNCc2cccc(-c3cccc(-c4nc5cc(F)ccc5[nH]4)c3)c2)c1,692
20,Cc1ccc(S(=O)(=O)N(CCCNCc2cccc(O)c2)c2ccccc2)cc1,767
21,COC(=O)c1cc(OC)c(OC)cc1NC(=O)NC12CC3CC(CC(C3)C1)C2,879
22,COc1ccc(CN2CCCC(C(=O)c3ccc(C(F)(F)F)cc3)C2)c(O)c1 (stereo not drawn),849
23,COc1ccc(CCNCCCCCNCCc2ccc(Cl)cc2)cc1OC,741
24,Cc1cc(-c2cnc(N)c(-c3ccc(N4CCN(C)CC4)nc3)c2)cc(C)c1O,1400
25,O=C(Cc1cccc(Cl)c1)Nc1cccc(-c2c[nH]c3nc(Nc4cccc(O)c4)ncc23)c1,731

row,SMILES,XC50 [nM]
1,CCN(CC)CC#Cc1ccc2[nH]c(C)c(Cl)c(=O)c2c1,702
2,O=C(CC1NC(=O)c2ccccc21)Nc1ccc(-c2ccc(-c3nc4cc(C(F)(F)F)ccc4[nH]3)cc2)cc1 (stereo not drawn),470
3,NOCCCCOc1cc(Cl)c(Cl)cc1Cl,175
4,Cc1ccc(CC(C)NCC(O)c2cccc(C#N)c2)cc1 (stereo not drawn),944
5,CC(C)OCCCNC(=O)c1nc(-c2cccc(C(F)(F)F)c2)sc1C(C)C,1160
6,Cc1ccccc1Nc1nc(NCCCO)c2ccccc2n1,407
7,CC(C)(C)c1ccc(N2C(N)=NC(N)=NC2(C)C)cc1,26.7
8,CCOC(=O)c1c(-c2ccccc2)c(C(=O)OCC)n2ccccc12,614
9,COC(=O)c1cccc(CNCc2cccc(-c3ccc(-c4nc5cccc(C)c5[nH]4)cc3)c2)c1,322
10,N#Cc1ccc(N(CCOc2ccc(Cl)cc2)Cc2ccccc2C(F)(F)F)cc1C(F)(F)F,656
11,CCN(CC)CCCNc1c2ccccc2nc2ccccc12,753
12,CCN1CCN(c2ccc(NC(=O)c3cc4c(C)nn(-c5ccccc5)c4s3)cc2C)CC1,757
13,COc1ccc(-c2cccc(NC(=O)c3cccc(Cl)c3)c2)cc1CN(C)CCN(C)C,813
14,CC(=O)Nc1ccc(OCCN(Cc2ccccc2C(F)(F)F)c2ccc(C#N)c(C(F)(F)F)c2)cc1,443
15,NC(=O)c1cc2nc(Nc3ccc(F)cc3)nc(NC3CCC3)c2[nH]1,195
16,Cc1noc(C)c1-c1cccc(CNCc2cccc(-c3cccc(-c4nc5cc(F)ccc5[nH]4)c3)c2)c1,176
17,Cc1cccc(CN2CCC(C(=O)Nc3ccc(-c4nc5ccccc5[nH]4)cc3)CC2)n1,919
18,Nc1ncc(-c2ccccc2)cc1/C=C/c1cccnc1,1120
19,Cc1[nH]c2ccc(O)cc2c1C1CCN(CC2CCC(NC(=O)/C=C/c3ccc(Cl)c(Cl)c3)CC2)CC1 (stereo not drawn),764
20,CCCCCCC(C)(C)c1cc(O)c2c3c(c(=O)oc2c1)CCN(Cc1ccccc1)C3,217
21,O=C(Nc1cccc2ccccc12)N1CCc2cc3nccc(N4CCN5CCC[C@H]5C4)c3cc21,889
22,O=C(Cc1cc(F)cc(F)c1)NC1CCN(c2ccnc3cc(Cl)ccc23)C1 (stereo not drawn),250
23,COC(=O)c1cccc(CNCc2cccc(-c3cccc(-c4nc5cc(F)ccc5[nH]4)c3)c2)c1,129
24,Cc1[nH]c2cc(Cl)ccc2c1C1=CCN(CCCCC2(C)C(=O)Nc3c(F)cccc32)CC1 (stereo not drawn),843
25,CCC[C@@H]([C@@H](CC1CCCCC1)C(=O)N[C@H](C(=O)Nc1nccs1)C(C)(C)SC)N(O)C=O,152

row,SMILES,XC50 [nM]
1,CC(C)NC(=N)NN=Cc1ccc(Cl)c(Cl)c1,534
2,Cc1cnc(C[S+]([O-])c2nc3cc(C(F)(F)F)ccc3[nH]2)cc1OCc1ccccc1 (stereo not drawn),742
3,CN(C)CCOc1ccc2c(c1)CN(C)CC2c1ccccc1 (stereo not drawn),1110
4,COC(=O)c1ccc2nc(-c3cc(OC)c(O)c(C(=O)NC4CCN(Cc5ccccc5)CC4)c3)[nH]c2c1,1180
5,O=C(Nc1ccc(N2CCCN(Cc3cccc(F)c3)CC2)cc1)c1cccs1,546
6,CC(C(=O)NC1CCN(c2ccnc(Nc3ccc(F)cc3)n2)C1)c1ccc(Cl)cc1 (stereo not drawn),860
7,COc1ccccc1N1CCN(Cc2cc(C(C)C)c(C)cc2O)CC1,572
8,CCOc1ccc(C(C)NC(=O)c2cc(Cl)ccc2OC)cc1OCC (stereo not drawn),971
9,O=C(c1cc(C(=O)Nc2ccccc2)c(=O)n(-c2ccccc2)c1)c1cc(Cl)ccc1O,390
10,CCOC(=O)N1CCN(CCCNc2c3ccccc3nc3ccccc23)CC1,1010
11,Cc1cccc2nc(-c3ccc(-c4ccc(CN5CCCCC5)cc4)cc3)[nH]c12,589
12,COc1ccc(CNC(=O)c2cnc3c(O)cccc3c2Nc2cccc(NC(=O)c3ccc(-c4ccccc4)cc3)c2)cc1,941
13,COc1ccc(CNC(=O)c2cnc3cc(-c4c(C)noc4C)ccc3c2Nc2ccccc2C(C)(C)C)cc1,1300
14,CCCC(C)Nc1nc(C)cc(N[C@@H](CC(C)C)C(=O)NCCc2ccccc2)n1 (stereo partly drawn),1360
15,O=C(c1cc(C(=O)NCc2ccc(Cl)cc2)c(=O)n(Cc2ccc(Cl)cc2)c1)c1cc(Cl)ccc1O,1400
16,O=C(Nc1ccc(Cl)cc1)c1ccc(CN2CCCN(Cc3ccc(F)cc3)CC2)cc1,966
17,CN1CCC(NCc2cccc(-c3ccc(S(=O)(=O)NCCc4ccccn4)c(F)c3)c2)CC1,918
18,CC1(C)NC(N)=NC(=N)N1OCCOc1cccc(C(F)(F)F)c1,3.2
19,O=C(CCc1ccccc1)NC(c1ccc(Cl)cc1)c1ccc2cccnc2c1O (stereo not drawn),847
20,CCOC(=O)c1c(C)n(C2CCCCCC2)c2cc(Br)c(O)cc12,1200
21,CCN(CC)/C(=N/C(=N)Nc1ccc(Cl)c(Cl)c1)NCCCCCCN/C(=N\C(=N)Nc1ccc(Cl)c(Cl)c1)N(CC)CC,761
22,S=C(Nc1cccc(Cl)c1)NC1CCN(c2ccnc3cc(Cl)ccc23)C1 (stereo not drawn),154
23,CC(C)(CNC(=O)C1CCN(Cc2ccoc2)CC1)c1nc(-c2ccc(Cl)c(O)c2)c(-c2ccncc2)[nH]1,866
24,COc1cccc(OCC2CCCN(CCCCNC(=O)c3ccc(NC(=O)c4ccc(Cl)cc4)cc3)C2)c1 (stereo not drawn),748
25,O=C(c1ccccc1F)N(Cc1ccc(Cl)cc1)c1ccccn1,1020

row,SMILES,XC50 [nM]
1,CCCCCCCN(Cc1ccc(OC(C)(C)C(=O)OCC)cc1)C(=O)Nc1ccc(Cl)cc1OCC,817
2,Cn1nccc1C(=O)NCCNCc1ccc(-c2ccc(-c3nc4cc(C(F)(F)F)ccc4[nH]3)s2)cc1,186
3,COc1ccc2nccc([C@@H](O)CN3CCC(NCCOc4ccccc4[N+](=O)[O-])CC3)c2c1,384
4,CCCc1cc(C(=O)N[C@@H](Cc2ccccc2)[C@H](O)CNC2CCOCC2)c(F)c(N2CCCCS2(=O)=O)c1,166
5,Cc1cccc2nc(-c3ccc(-c4cccc(NC(=O)c5ccncc5)c4)cc3)[nH]c12,839
6,OCCCCCCNc1nc(NCc2ccccc2-c2ccc(C(F)(F)F)cc2)nc(N2CCNCC2)n1,1440
7,CC1(C)NC(N)=NC(=N)N1OCCSc1ccccc1,3.2
8,COc1cc(NC(=O)CCCCCCCCN2CCN(C)CC2)c2ncccc2c1,891
9,CN1CCN(CC(=O)Nc2ccc(-c3cccc(-c4nc5cc(F)ccc5[nH]4)c3)cc2)CC1,832
10,CN1CCN(CCCN(Cc2ccc(-c3ccc(CNCc4ccc5c(c4)OCO5)cc3)cc2)C(=O)Nc2ccccc2)CC1,707
11,Cc1cc(N[C@@H](Cc2ccccc2)C(=O)Nc2ccccc2)nc(NCCc2cccs2)n1,796
12,COc1ccc(CNCc2cccc(-c3ccc(-c4nc5cccc(C)c5[nH]4)s3)c2)cc1,263
13,O=S(=O)(NCCN1CCCC1)c1ccc(-c2ccc(CNCc3ccccc3)cc2)s1,849
14,COc1ccc(Cl)cc1-c1nc(C(=O)NCCN2CCCCC2)c(C(C)C)s1,753
15,Cc1ccc(C(=O)Nc2ccc(F)cc2)cc1-c1nc(NC2CC(C)(C)NC(C)(C)C2)nc2c1ccc(=O)n2-c1c(F)cccc1F,684
16,FC(F)(F)c1ccc2[nH]c(-c3ccc(-c4cccc(CNCc5cnn(-c6ccccc6)n5)c4)cc3)nc2c1,652
17,CC(C)(C)C(=O)Nc1c(-c2cc(=O)oc3cc4c(cc23)CCC4)oc2ccccc12,1260
18,N#Cc1ccc2c(c1)CN(C1CCC(NC(=O)c3cc(-c4ccc(Cl)cc4)cs3)CC1)CCC2 (stereo not drawn),956
19,OC[C@H](Nc1nc(C(Oc2ccccc2)c2ccccc2)nc2[nH]ncc12)c1ccccc1 (stereo partly drawn),854
20,CC(=O)Nc1nc(C(=O)Nc2ccc(-c3ccc(-c4nc5cc(F)ccc5[nH]4)cc3)cc2)cs1,460
21,CCCC(C)NC(=O)c1cnn(-c2ccc(C(C)(C)C)cc2)c1OCc1ccc(Br)cc1 (stereo not drawn),1060
22,Cc1ccc(S(=O)(=O)NC2CCN(CCNC(=O)Nc3cc(C)nc4ccccc34)C2)cc1 (stereo not drawn),1040
23,CCCC(=O)c1cnc2c(OCCCc3c[nH]cn3)cccc2c1Nc1c(C)cccc1C,338
